Measured values: patent US7750003B2, “Compounds-943” (AstraZeneca AB, priority 2006, dated 2010)
Values joined by “and” are separate entries in the source; they are usually repeats but may differ in a detail not shown here. Identical values can stand only once.

Tests used:
[1] = biological target: recombinant mTOR (FLAG-tagged, residues 1362-2549) (Homo sapiens, UniProt P42345); experiment: In vitro mTOR kinase assay (Test (a), AlphaScreen); type: biochemical; settings: ATP 20 μM, read-out: Test (a): IC50 versus mTOR kinase
In short: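 AlphaScreen read-out: a phospho-T389 p70 S6K antibody on acceptor beads captures the phosphorylated biotin-peptide on donor beads, with signal loss indicating inhibition.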

p110α Type Ia human PI3K = biological target: T1, p110α Type Ia human PI3K (Homo sapiens, UniProt P42336); experiment: In vitro PI3K enzyme assay (Test (b), AlphaScreen), p110α; type: biochemical; settings: ATP 4 μM, read-out: Test (b): IC50 versus p110α Type Ia human PI3K
T1 construct: full length DNA of each of the p110α, p110β and p110δ Type Ia human PI3K p110 isoforms; 6-His; made in house
Text: (b) In Vitro PI3K Enzyme Assay
The assay used AlphaScreen technology (Gray et al., Analytical Biochemistry, 2003, 313: 234-245) to determine the ability of test compounds to inhibit phosphorylation by recombinant Type I PI3K enzymes of the lipid PI(4,5)P2.
DNA fragments encoding human PI3K catalytic and regulatory subunits were isolated from cDNA libraries using standard molecular biology and PCR cloning techniques. The selected DNA fragments were used to generate baculovirus expression vectors. In particular, full length DNA of each of the p110α, p110β and p110δ Type Ia human PI3K p110 isoforms (EMBL Accession Nos. HSU79143, S67334, Y10055 for p110α, p110β and p110δ respectively) were sub-cloned into a pDEST10 vector (Invitrogen Limited, Fountain Drive, Paisley, UK). The vector is a Gateway-adapted version of Fastbac1 containing a 6-His epitope tag. […]
Biotinylated-DiC8-PI(3,4,5)P3 (50 nM; Cell Signals Inc., Catalogue No. 107), recombinant purified GST-Grp1 PH protein (2.5 nM) and AlphaScreen Anti-GST donor and acceptor beads (100 ng; Packard Bioscience Limited, Station Road, Pangbourne, Berkshire, UK, Catalogue No. 6760603M) were added and the assay plates were left for about 5 to 20 hours at room temperature in the dark. The resultant signals arising from laser light excitation at 680 nm were read using a Packard AlphaQuest instrument. […]

[2] = tested on: phosphorylation of Serine 473 in Akt in MDA-MB-468 human breast adenocarcinoma cells; experiment: In vitro phospho-Ser473 Akt assay (Test (c)); type: cell-based; settings: Homo sapiens, MDA-MB-468, 2 h, MDA-MB-468 cells, 2 hours incubation; read-out: Test (c): IC50 versus Serine 473 in Akt
In short: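 MDA-MB-468 cells (15000/well, adhered overnight) treated with compound for 2 h at 37 °C, 5% CO2. After formaldehyde fixation, permeabilisation and blocking, phospho-Akt Ser473 immunostained with Alexafluor488 secondary and quantified by laser-scanning imaging (Acumen Explorer); IC50 from fluorescence dose–response.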

recombinant mTOR (FLAG-tagged, residues 1362-2549), sequence (P42345 1362-2549): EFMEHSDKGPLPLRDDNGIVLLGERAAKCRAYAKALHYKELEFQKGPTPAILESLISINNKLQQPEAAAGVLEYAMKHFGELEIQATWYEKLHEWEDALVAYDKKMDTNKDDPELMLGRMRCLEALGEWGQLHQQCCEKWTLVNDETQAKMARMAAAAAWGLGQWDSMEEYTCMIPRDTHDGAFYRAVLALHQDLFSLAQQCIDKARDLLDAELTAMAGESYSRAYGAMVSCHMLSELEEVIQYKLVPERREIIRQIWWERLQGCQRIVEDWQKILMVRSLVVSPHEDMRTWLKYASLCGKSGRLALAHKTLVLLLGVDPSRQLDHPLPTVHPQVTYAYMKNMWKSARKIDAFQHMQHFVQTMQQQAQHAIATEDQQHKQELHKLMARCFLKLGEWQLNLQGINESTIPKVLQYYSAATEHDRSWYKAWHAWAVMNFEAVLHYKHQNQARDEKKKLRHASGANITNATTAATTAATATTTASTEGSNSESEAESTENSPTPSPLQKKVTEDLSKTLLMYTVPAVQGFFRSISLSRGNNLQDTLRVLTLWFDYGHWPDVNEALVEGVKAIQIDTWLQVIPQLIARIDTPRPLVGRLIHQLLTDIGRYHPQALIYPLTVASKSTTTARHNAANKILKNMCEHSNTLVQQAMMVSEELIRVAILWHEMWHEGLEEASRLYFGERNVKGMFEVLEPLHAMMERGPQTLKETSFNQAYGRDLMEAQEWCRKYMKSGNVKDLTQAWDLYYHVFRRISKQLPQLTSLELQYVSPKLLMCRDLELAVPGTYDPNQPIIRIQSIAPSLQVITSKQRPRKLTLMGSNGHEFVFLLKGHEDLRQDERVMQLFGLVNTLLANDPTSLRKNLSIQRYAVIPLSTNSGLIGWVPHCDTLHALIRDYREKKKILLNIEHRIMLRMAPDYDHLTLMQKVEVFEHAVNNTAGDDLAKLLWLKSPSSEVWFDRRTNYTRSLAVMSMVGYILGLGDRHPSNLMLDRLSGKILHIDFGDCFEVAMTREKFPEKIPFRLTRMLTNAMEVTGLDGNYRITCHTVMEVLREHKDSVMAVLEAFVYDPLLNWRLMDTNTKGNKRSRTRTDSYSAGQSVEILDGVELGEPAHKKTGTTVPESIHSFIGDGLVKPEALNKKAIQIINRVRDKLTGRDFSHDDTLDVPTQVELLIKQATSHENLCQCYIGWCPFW
T1 sequence (P42336 whole entry, canonical isoform): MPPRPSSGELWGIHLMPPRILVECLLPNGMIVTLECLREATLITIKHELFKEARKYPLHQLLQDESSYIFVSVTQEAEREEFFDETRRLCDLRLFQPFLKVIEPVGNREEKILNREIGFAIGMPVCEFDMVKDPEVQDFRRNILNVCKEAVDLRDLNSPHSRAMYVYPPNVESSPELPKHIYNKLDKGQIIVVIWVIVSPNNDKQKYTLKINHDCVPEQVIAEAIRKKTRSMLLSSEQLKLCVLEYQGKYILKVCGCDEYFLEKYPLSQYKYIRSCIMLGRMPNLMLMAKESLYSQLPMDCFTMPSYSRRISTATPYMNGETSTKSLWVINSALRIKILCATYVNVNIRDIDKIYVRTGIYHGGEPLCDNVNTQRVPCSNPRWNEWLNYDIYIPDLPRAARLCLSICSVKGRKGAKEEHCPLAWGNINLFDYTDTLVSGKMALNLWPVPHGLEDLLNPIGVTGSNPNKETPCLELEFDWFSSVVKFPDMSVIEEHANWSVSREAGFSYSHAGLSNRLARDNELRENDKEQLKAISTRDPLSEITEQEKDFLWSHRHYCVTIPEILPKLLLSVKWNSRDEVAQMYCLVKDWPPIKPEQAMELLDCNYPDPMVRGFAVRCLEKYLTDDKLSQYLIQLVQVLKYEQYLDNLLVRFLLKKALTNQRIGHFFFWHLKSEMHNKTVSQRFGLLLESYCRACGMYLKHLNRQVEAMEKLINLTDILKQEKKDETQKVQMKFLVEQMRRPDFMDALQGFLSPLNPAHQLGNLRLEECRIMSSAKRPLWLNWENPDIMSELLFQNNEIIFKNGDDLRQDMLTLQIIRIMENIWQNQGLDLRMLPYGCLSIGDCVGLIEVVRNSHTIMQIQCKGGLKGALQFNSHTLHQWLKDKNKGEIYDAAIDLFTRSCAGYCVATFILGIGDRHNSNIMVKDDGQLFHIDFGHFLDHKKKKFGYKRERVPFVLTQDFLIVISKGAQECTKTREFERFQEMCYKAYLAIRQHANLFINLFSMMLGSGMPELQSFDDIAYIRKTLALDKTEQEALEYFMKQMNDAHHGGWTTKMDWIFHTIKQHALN
T1 sequence (P27986 whole entry partner, canonical isoform): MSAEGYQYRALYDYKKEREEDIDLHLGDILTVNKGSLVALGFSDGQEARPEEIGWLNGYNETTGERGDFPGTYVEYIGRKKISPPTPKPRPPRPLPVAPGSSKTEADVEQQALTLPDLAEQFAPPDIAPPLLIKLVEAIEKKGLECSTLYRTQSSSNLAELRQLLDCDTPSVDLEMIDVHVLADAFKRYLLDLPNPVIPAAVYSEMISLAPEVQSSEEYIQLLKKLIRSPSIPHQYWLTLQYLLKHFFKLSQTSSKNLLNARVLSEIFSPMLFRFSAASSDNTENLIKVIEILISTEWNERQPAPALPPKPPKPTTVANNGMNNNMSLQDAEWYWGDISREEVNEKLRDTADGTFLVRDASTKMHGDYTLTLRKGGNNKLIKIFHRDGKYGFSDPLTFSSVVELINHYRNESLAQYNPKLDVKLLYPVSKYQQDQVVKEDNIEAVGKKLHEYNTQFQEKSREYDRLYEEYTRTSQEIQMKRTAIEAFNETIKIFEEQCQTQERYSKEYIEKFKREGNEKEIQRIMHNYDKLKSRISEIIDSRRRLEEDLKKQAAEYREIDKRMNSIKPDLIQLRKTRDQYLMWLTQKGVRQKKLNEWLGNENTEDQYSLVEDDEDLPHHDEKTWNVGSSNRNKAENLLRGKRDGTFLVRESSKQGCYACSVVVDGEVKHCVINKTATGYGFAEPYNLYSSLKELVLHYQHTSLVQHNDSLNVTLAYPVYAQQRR

Structure (SMILES) | IC50 [1] | IC50 (p110α Type Ia human PI3K) | IC50 [2]
Cc1cc(NC(=O)Nc2ccc(-c3nc(CS(C)(=O)=O)cc(N4CCOCC4)n3)cc2)no1 [Example 34b, 1-(5-methyl-1,2-oxazol-3-yl)-3-[4-[4-(methylsulfonylmethyl)-6-morpholin-4-yl-pyrimidin-2-yl]phenyl]urea] | 120 nM and 155 nM and 93 nM | 91200 nM and 57800 nM | 
C[C@H]1COCCN1c1cc(C(C)(C)S(=O)(=O)C(C)(C)C)nc(-c2ccc(NC(=O)NCCO)cc2)n1 [Example 66g, 3-(2-hydroxyethyl)-1-[4-[4-[(3S)-3-methylmorpholin-4-yl]-6-(2-tert-butylsulfonylpropan-2-yl)pyrimidin-2-yl]phenyl]urea] |  |  | 300 nM
